“And” between values parts separate entries of the source, which are not always exact repeats. Equal entries are not always repeated. Inconclusive results and toxic doses are left out.
Test system: AKR/Lw mice, AKR lymphoma ip, median survival T/C
Experiment: NCI In Vivo Anticancer Drug Screen. Data for tumor model Lymphoma AKR (Transplanted) (intraperitoneal) in AKR/Lw mice
Settings: endpoint: median survival time, higher = longer survival
Protocol: The antitumor activity of compounds was measured in mice bearing transplantable tumors. Survival or tumor size were measured and the results are expressed as the measurement made in the treated group (T) divided by the measurement made in the vehicle treated control group (C). The tumor model used in this assay is Lymphoma AKR (Transplanted) (intraperitoneal) in AKR/Lw mice

[1] = dose: 100.0 mg/kg/injection, schedule: Q01DX001 (ip), vehicle: saline
[2] = dose: 200.0 mg/kg/injection, schedule: Q01DX001 (ip), vehicle: saline
[3] = dose: 100.0 mg/kg/injection, schedule: Q01DX001 (ip), vehicle: Klucel (hydroxypropylcellulose) (HPC)
[4] = dose: 100.0 mg/kg/injection, schedule: Q04DX003 (ip), vehicle: Klucel (hydroxypropylcellulose) (HPC)
[5] = dose: 200.0 mg/kg/injection, schedule: Q01DX001 (ip), vehicle: Klucel (hydroxypropylcellulose) (HPC)
[6] = dose: 200.0 mg/kg/injection, schedule: Q04DX003 (ip), vehicle: Klucel (hydroxypropylcellulose) (HPC)
[7] = dose: 400.0 mg/kg/injection, schedule: Q01DX001 (ip), vehicle: Klucel (hydroxypropylcellulose) (HPC)

Compound	T/C [1]	T/C [2]	T/C [3]	T/C [4]	T/C [5]	T/C [6]	T/C [7]	also measured
N=c1ccn2c(n1)OC1C(O)C(CO)OC12 (configuration not stated)	91 % of control and 117 % of control	105 % of control and 111 % of control	–	–	–	–	–	T/C (dose: 6.0 mg/kg/injection, schedule: Q01DX009 (ip), vehicle: saline): 105 % of control; T/C (dose: 6.2 mg/kg/injection, schedule: Q01DX009 (ip), vehicle: saline): 100 % of control; T/C (dose: 12.0 mg/kg/injection, schedule: Q01DX009 (ip), vehicle: saline): 105 % of control; T/C (dose: 12.5 mg/kg/injection, schedule: Q01DX009 (ip), vehicle: saline): 114 % of control and 120 % of control; T/C (dose: 25.0 mg/kg/injection, schedule: Q04DX003 (ip), vehicle: saline): 100 % of control; T/C (dose: 37.5 mg/kg/injection, schedule: Q01DX009 (ip), vehicle: saline): 111 % of control; T/C (dose: 50.0 mg/kg/injection, schedule: Q01DX001 (ip), vehicle: saline): 111 % of control; T/C (dose: 50.0 mg/kg/injection, schedule: Q04DX003 (ip), vehicle: saline): 102 % of control; T/C (dose: 300.0 mg/kg/injection, schedule: Q01DX001 (ip), vehicle: saline): 123 % of control; T/C (dose: 300.0 mg/kg/injection, schedule: Q01DX009 (ip), vehicle: saline): 153 % of control; T/C (dose: 500.0 mg/kg/injection, schedule: Q01DX009 (ip), vehicle: saline): 105 % of control; T/C (dose: 600.0 mg/kg/injection, schedule: Q04DX003 (ip), vehicle: saline): 168 % of control
CN(CCOc1ccccc1O)CCOc1ccccc1O	–	–	105 % of control	100 % of control	107 % of control	92 % of control	105 % of control	–
C=CCN(CC=C)c1ccc(N(CC)CC)cc1	–	–	96 % of control	97 % of control	92 % of control	100 % of control	–	T/C (dose: 25.0 mg/kg/injection, schedule: Q04DX003 (ip), vehicle: Klucel (hydroxypropylcellulose) (HPC)): 100 % of control; T/C (dose: 50.0 mg/kg/injection, schedule: Q04DX003 (ip), vehicle: Klucel (hydroxypropylcellulose) (HPC)): 94 % of control
CC12CCCC(=O)C1CC/C(=C\c1ccco1)C2=O (configuration not stated)	109 % of control	100 % of control	–	–	–	–	–	T/C (dose: 400.0 mg/kg/injection, schedule: Q01DX001 (ip), vehicle: saline): 100 % of control
COc1ccc(N2C(=O)CC(Sc3ccccc3N)C2=O)cc1 (configuration not stated)	–	–	–	–	–	–	87 % of control	–
COC(=O)C1(C)CSCCC1=O (configuration not stated)	–	–	91 % of control	–	105 % of control	–	96 % of control	–

Reference: PubChem BioAssay AID190 (DTP/NCI, 2004)
